# Measurements: ChEMBL document CHEMBL5365431 (J Med Chem, 2023)
# Assays:
# CAPAN-1 [1] = test: Antiproliferative activity against human Talazoparib-resistant CAPAN-1 cells assessed as cell proliferation inhibition incubated for 7 days by SRB assay; type: functional, cell-based
# [2] = target: Poly [ADP-ribose] polymerase 1 (Homo sapiens, UniProt P09874); test: Inhibition of PARP1 (unknown origin) using histone as substrate by ELISA
# CAPAN-1 [3] = test: Antiproliferative activity against human CAPAN-1 cells assessed as cell proliferation inhibition incubated for 7 days by SRB assay; type: functional, cell-based
# [4] = Antiproliferative activity against human Olaparib-resistant CAPAN-1 cells assessed as cell proliferation inhibition incubated for 7 days by SRB assay; type: functional, cell-based
# [5] = Stabilization of human His-tagged PARP1-DNA complex assessed as increase in fluorescence signal incubated for 60 mins using NAD+ as substrate by DSB fluorescence polarization assay
# [6] = Clearance in Sprague-Dawley rat at 5 mg/kg, iv and measured upto 24 hrs; type: ADME, organism-based; details: in vivo
# [7] = Half life in Sprague-Dawley rat at 5 mg/kg, iv and measured upto 24 hrs; type: ADME, organism-based; details: in vivo
# Sequence of Poly [ADP-ribose] polymerase 1 (P09874 whole entry): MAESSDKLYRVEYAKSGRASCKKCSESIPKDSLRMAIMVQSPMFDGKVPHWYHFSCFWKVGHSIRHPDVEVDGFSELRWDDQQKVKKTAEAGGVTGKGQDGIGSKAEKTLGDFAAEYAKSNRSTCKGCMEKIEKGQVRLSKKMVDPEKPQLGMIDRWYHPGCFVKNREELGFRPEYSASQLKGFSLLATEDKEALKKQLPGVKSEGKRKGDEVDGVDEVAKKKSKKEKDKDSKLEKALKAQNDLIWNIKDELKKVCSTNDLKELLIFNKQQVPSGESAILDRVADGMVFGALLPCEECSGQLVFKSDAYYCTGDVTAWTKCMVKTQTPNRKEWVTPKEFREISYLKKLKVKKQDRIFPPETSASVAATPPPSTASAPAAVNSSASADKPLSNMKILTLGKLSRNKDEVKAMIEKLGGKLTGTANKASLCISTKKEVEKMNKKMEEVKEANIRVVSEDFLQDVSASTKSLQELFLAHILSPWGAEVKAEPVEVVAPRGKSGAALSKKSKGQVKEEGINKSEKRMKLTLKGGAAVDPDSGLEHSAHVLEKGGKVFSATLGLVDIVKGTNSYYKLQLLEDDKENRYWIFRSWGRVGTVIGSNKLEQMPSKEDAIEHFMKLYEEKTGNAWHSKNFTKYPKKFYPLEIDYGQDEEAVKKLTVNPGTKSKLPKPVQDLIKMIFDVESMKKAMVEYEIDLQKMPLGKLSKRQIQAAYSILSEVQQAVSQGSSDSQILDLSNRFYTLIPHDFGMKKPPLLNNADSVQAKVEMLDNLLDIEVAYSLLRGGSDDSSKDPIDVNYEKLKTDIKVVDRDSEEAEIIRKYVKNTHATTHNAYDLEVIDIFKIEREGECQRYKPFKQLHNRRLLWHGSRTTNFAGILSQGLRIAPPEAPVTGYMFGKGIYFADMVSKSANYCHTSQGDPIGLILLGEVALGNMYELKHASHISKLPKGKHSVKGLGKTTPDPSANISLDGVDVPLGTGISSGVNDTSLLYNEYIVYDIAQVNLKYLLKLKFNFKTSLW
IC50 [2],EC50 [5],clearance [6],half-life [7],SMILES,IC50 (CAPAN-1 [1]),IC50 (CAPAN-1 [3]),IC50 [4]
< 0.001 nM,,,,Cc1cc(-c2nnc3n2CCN(C(=O)c2cc(Cc4n[nH]c(=O)c5ccccc45)ccc2F)C3)oc1C,21 nM,1.44 nM,22.1 nM
0.02 nM,,,,O=C(c1cc(Cc2n[nH]c(=O)c3ccccc23)ccc1F)N1CCn2c(nnc2-c2ccc(CN3CCSCC3)o2)C1,404 nM,50.5 nM,618 nM
,,,,Cn1ncnc1[C@H]1c2n[nH]c(=O)c3cc(F)cc(c23)N[C@@H]1c1ccc(F)cc1 [TALAZOPARIB],906 nM,7.77 nM,686 nM
0.74 nM,,,,O=C(c1cc(Cc2n[nH]c(=O)c3ccccc23)ccc1F)N1CCn2c(nnc2-c2ccc(Cl)o2)C1,5.91 nM,1.48 nM,12.6 nM
0.86 nM,,,,CNCc1ccc(-c2nnc3n2CCN(C(=O)c2cc(Cc4n[nH]c(=O)c5ccccc45)ccc2F)C3)o1,4600 nM,500 nM,6150 nM
,234 nM,34.3 mL/min/kg,31.8 min,O=C(c1cc(Cc2n[nH]c(=O)c3ccccc23)ccc1F)N1CCN(C(=O)C2CC2)CC1 [OLAPARIB],,,
12.9 nM,,,,CP(C)(=O)c1ccc(-c2nnc3n2CCN(C(=O)c2cc(Cc4n[nH]c(=O)c5ccccc45)ccc2F)C3)o1,> 10000 nM,3550 nM,> 10000 nM
0.96 nM,,,,CCN(CC)Cc1ccc(-c2nnc3n2CCN(C(=O)c2cc(Cc4n[nH]c(=O)c5ccccc45)ccc2F)C3)o1,701 nM,98.3 nM,812 nM
2.33 nM,,,,O=C(c1cc(Cc2n[nH]c(=O)c3ccccc23)ccc1F)N1CCn2c(nnc2-c2ccc(C3CCOCC3)o2)C1,78.4 nM,3.8 nM,78.2 nM
0.24 nM,,,,Cc1ccc(-c2nnc3n2CCN(C(=O)c2cc(Cc4n[nH]c(=O)c5ccccc45)ccc2F)C3)o1,9.98 nM,1.82 nM,8.28 nM
5.67 nM,,,,O=C(c1cc(Cc2n[nH]c(=O)c3ccccc23)ccc1F)N1CCn2c(nnc2-c2ccc(C(F)(F)CO)o2)C1,115 nM,15.9 nM,137 nM
0.44 nM,,,,O=C(c1cc(Cc2n[nH]c(=O)c3ccccc23)ccc1F)N1CCn2c(nnc2-c2ccoc2)C1,42.5 nM,8.81 nM,73.6 nM
47.4 nM,,,,O=C(c1cc(Cc2n[nH]c(=O)c3ccccc23)ccc1F)N1CCn2c(nnc2-c2ccc([N+](=O)[O-])o2)C1,214 nM,5.89 nM,178 nM
,621 nM,,,NC(=O)c1cccc2cn(-c3ccc([C@@H]4CCCNC4)cc3)nc12 [NIRAPARIB],,,
23.1 nM,,,,O=C(c1cc(Cc2n[nH]c(=O)c3ccccc23)ccc1F)N1CCn2c(nnc2-c2ccc(C(F)F)o2)C1,70.3 nM,6.64 nM,71.1 nM
1.26 nM,,,,O=C(c1cc(Cc2n[nH]c(=O)c3ccccc23)ccc1F)N1CCn2c(nnc2-c2ccc(CN3CCCC3)o2)C1,905 nM,161 nM,1430 nM
61.7 nM,,,,O=C(c1cc(Cc2n[nH]c(=O)c3ccccc23)ccc1F)N1CCn2c(nnc2-c2ccc(C(F)(F)F)o2)C1,6.09 nM,2.32 nM,52.3 nM

IC50 [2],EC50 [5],clearance [6],half-life [7],SMILES,IC50 (CAPAN-1 [1]),IC50 (CAPAN-1 [3]),IC50 [4]
7.32 nM,,,,Cn1cc(-c2nnc3n2CCN(C(=O)c2cc(Cc4n[nH]c(=O)c5ccccc45)ccc2F)C3)cn1,6990 nM,351 nM,7160 nM
13.5 nM,,,,Cc1cccc(-c2nnc3n2CCN(C(=O)c2cc(Cc4n[nH]c(=O)c5ccccc45)ccc2F)C3)n1,68.5 nM,6.47 nM,42.2 nM
0.96 nM,,,,O=C(c1cc(Cc2n[nH]c(=O)c3ccccc23)ccc1F)N1CCn2c(nnc2-c2ccc(CN3CCC3)o2)C1,5590 nM,349 nM,6490 nM
2.14 nM,,,,Cc1nc(-c2nnc3n2CCN(C(=O)c2cc(Cc4n[nH]c(=O)c5ccccc45)ccc2F)C3)cs1,203 nM,19 nM,
8.15 nM,,,,CNCC(F)(F)c1ccc(-c2nnc3n2CCN(C(=O)c2cc(Cc4n[nH]c(=O)c5ccccc45)ccc2F)C3)o1,393 nM,24.3 nM,423 nM
< 0.1 nM,,,,O=C(c1cc(Cc2n[nH]c(=O)c3ccccc23)ccc1F)N1CCn2c(nnc2-c2cc(Br)c(Cl)o2)C1,12.1 nM,0.24 nM,20.3 nM
6.19 nM,,,,O=C(c1cc(Cc2n[nH]c(=O)c3ccccc23)ccc1F)N1CCn2c(nnc2-c2ccc(C3COC3)o2)C1,191 nM,15.5 nM,363 nM
6.34 nM,,,,Cn1ccc(-c2nnc3n2CCN(C(=O)c2cc(Cc4n[nH]c(=O)c5ccccc45)ccc2F)C3)n1,168 nM,30.4 nM,135 nM
0.26 nM,,,,O=C(c1cc(Cc2n[nH]c(=O)c3ccccc23)ccc1F)N1CCn2c(nnc2-c2ccco2)C1,40 nM,7.39 nM,56.4 nM
8.49 nM,,,,NCC(F)(F)c1ccc(-c2nnc3n2CCN(C(=O)c2cc(Cc4n[nH]c(=O)c5ccccc45)ccc2F)C3)o1,627 nM,122 nM,766 nM
1.35 nM,,,,CN(C)Cc1ccc(-c2nnc3n2CCN(C(=O)c2cc(Cc4n[nH]c(=O)c5ccccc45)ccc2F)C3)o1,941 nM,151 nM,1030 nM
0.23 nM,,,,N#Cc1ccc(-c2nnc3n2CCN(C(=O)c2cc(Cc4n[nH]c(=O)c5ccccc45)ccc2F)C3)o1,> 10000 nM,83.8 nM,
1.91 nM,,,,O=C(c1cc(Cc2n[nH]c(=O)c3ccccc23)ccc1F)N1CCn2c(nnc2C2CCOC2)C1 (stereo not given),517 nM,39.1 nM,1110 nM
0.17 nM,,,,O=C(c1cc(Cc2n[nH]c(=O)c3ccccc23)ccc1F)N1CCn2c(nnc2-c2ccc(CN3CCCCC3)o2)C1,393 nM,56.8 nM,605 nM
1.28 nM,,,,O=C(c1cc(Cc2n[nH]c(=O)c3ccccc23)ccc1F)N1CCn2c(nnc2-c2ccc(CN3CCOCC3)o2)C1,2000 nM,290 nM,5140 nM
0.97 nM,,,,O=C(c1cc(Cc2n[nH]c(=O)c3ccccc23)ccc1F)N1CCn2c(nnc2-c2ccno2)C1,249 nM,18.6 nM,348 nM
